Results reported in US4994258A, “Gamma emitting, CCK-A antagonists for pancreatic imaging” (Merck & Co., Inc., priority 1990, dated 1991).

Columns and labels:
[1] = In vivo distribution after coinjection of unlabeled carboxamide (receptor-mediated binding); parameters: species or system rats; conditions: rat, iv
Description: (§1) Animals were euthanized at various times (15 min to 2 hr), and organs of interest removed for assay. […] […] Liquid scintillation cocktail was added and the samples were dark adapted for 16 hours, then counted in a liquid scintillation counter with automatic quench correction. Results were the average of at least five animals and were expressed as % dose/g (wet weight).

CCK-A receptors [2] = assay: as above; parameters: species or system rats; conditions: rats
Description: as §1

[3] = In vivo distribution necropsy after i.v. injection; parameters: species or system rats
Description: Animals were euthanized at various times (15 min to 2 hr), and organs of interest removed for assay. Biopsy samples were counted in an autogamma counter (50% counting efficiency) for ^123 I labeled radioligand. For the tritiated radioligand, in rats and rabbits, 10 to 50 mg samples of pancreas and, in rats, several regions of CNS (cortex, interpeduncular nucleus, and substantial nigra) were solubilized in protosol® (New England Nuclear). Liquid scintillation cocktail was added and the samples were dark adapted for 16 hours, then counted in a liquid scintillation counter with automatic quench correction. Results were the average of at least five animals and were expressed as % dose/g (wet weight).

CCK-A receptors [4] = test system: CCK-A receptors; parameters: species or system rats; conditions: rat, in vivo, iv
Description: Rats under ketamine/acepromazine anesthesia were positioned for either anterior or posterior dynamic (128×128×16) images. A large-field-of-view gamma camera with a low energy, all purpose collimator, peaked for ^123 I, was utilized. Thirty one-minute images were acquired immediately post intravenous administration of 0.2 mCi of [^123 I]3(S)-1,3-dihydro-3-(4-iodobenzoylamino)-1-methyl -5-phenyl-2H-1,4-benzodiazepin-2-one. To enable visualization of the liver alone, an unblocked rat was injected with 0.125 mCi of ^99m Tc-albumin colloid. A static one-minute image (128×128×16) was obtained then, without moving the animal, the dose of [^123 I]3(S)-1,3-dihydro-3-(4-iodobenzoylamino) -1-methyl-5-phenyl-2H-1,4-benzodiazepin-2-one was injected and imaging proceeded as described. Rabbits and African green monkeys under ketamine/ xylazine anesthesia were positioned for an anterior view and imaged as the rats were after an intravenous injection of 0.5 mCi of [^123 I] (S)-1,3-dihydro-3-(4-iodobenzoylamino) -1-methyl-5-phenyl-2H-1,4-benzodiazepin-2-one for rabbits, and 1.3 mCi for monkeys.
All blocked studies utilized a coinjection of 1 mg/kg of (R)-N-(2,3-dihydro-1-methyl-2-oxo-5-phenyl-1H-1, 4-benzodiazepin-3-yl)-1H-indole-2-carboxamide. […] Reduced data were expressed as count rates in regions of interest (ROI) as a function of time.

[5] = target: T1, CCK-A receptor from rat pancreas (Rattus norvegicus, UniProt P30551); assay: In vitro binding assay, saturation studies with radioligand, rat pancreas
T1 construct: Pancreatae were removed from either rats or rabbits immediately after euthanasia; from tissue; host or cells: rat pancreas homogenate
T1 sequence (P30551 1-444): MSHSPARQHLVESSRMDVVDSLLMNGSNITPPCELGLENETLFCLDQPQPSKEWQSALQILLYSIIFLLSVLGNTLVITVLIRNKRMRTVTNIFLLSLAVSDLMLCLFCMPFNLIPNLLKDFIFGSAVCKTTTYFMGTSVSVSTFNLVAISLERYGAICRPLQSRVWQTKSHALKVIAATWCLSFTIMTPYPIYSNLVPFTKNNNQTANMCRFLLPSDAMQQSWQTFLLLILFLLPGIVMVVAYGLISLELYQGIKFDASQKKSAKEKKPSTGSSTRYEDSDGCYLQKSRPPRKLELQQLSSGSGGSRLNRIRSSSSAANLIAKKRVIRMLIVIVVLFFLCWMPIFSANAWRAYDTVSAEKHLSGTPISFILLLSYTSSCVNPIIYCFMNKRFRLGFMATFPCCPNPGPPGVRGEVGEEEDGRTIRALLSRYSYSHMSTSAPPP
Description: Pancreatae were removed from either rats or rabbits immediately after euthanasia and placed in ice-cold buffer (50 mM Tris·HCl (pH 7.4), 5 mM MgCl2, 5 mM DTT, 2 mg/ml BSA and 0.14 mg/ml bacitracin). The tissue (0.5 g pancreas) was homogenized in 200 ml of the ice-cold Tris buffer. Aliquots (0.1 ml) were added to various concentrations of radioligand (5 ml) in Tris buffer, incubated for 60 min at ambient temperatures, and filtered over GC-filters. After washing with ice cold Tris buffer (2×5 ml), the filters were air dried and counted in 10 ml of liquid scintillation cocktail (PCS, Amersham) in a Beckman LSC-5000. Data were converted to Molar concentrations and analyzed via SCAFIT, and data are presented by the method of Scatchard. The specific activity of the radioiodinated product was determined as that which provided the same concentration of receptor as obtained with the tritiated ligand.

With `CN1C(=O)[C@@H](NC(=O)c2ccc([123I])cc2)N=C(c2ccccc2)c2ccccc21` [[^123 I]3(S)-1,3-Dihydro-3-(4-iodobenzoylamino)-1-methyl-5-phenyl-2 H-1,4-benzodiazepin-2-one] the tissue uptake at 0.5 h ([1]; blood, 0.4 mg/kg, blood, 30 min post-i.v. coinjection of 10 μCi with 0.4 mg/kg (R)-indole-2-carboxamide, 95% confidence intervals (Table 5), read-out: % DOSE/GRAM, Blood, coinjection) was 0.236 ± 0.03 %ID/g, the tissue uptake at 0.5 h ([1]; P. Sphincter (pyloric), 30 min post-i.v. coinjection of 10 μCi with 0.4 mg/kg (R)-indole-2-carboxamide, 95% confidence intervals (Table 5), read-out: % DOSE/GRAM, P. Sphincter, coinjection) was 0.705 ± 0.19 %ID/g and the tissue uptake at 0.5 h ([1]; descending colon, 30 min post-i.v. coinjection of 10 μCi with 0.4 mg/kg (R)-indole-2-carboxamide, 95% confidence intervals (Table 5), read-out: % DOSE/GRAM, Descending Colon, coinjection) was 0.434 ± 0.12 %ID/g. It also gave a tissue uptake at 0.5 h ([1]; sigmoidal colon, 30 min post-i.v. coinjection of 10 μCi with 0.4 mg/kg (R)-indole-2-carboxamide, 95% confidence intervals (Table 5), read-out: % DOSE/GRAM, Sigmoidal Colon, coinjection) of 0.6 ± 0.47 %ID/g, a tissue uptake at 0.5 h ([1]; transverse colon, 30 min post-i.v. coinjection of 10 μCi with 0.4 mg/kg (R)-indole-2-carboxamide, 95% confidence intervals (Table 5), read-out: % DOSE/GRAM, Transverse Colon, coinjection) of 0.384 ± 0.06 %ID/g and a tissue uptake at 0.5 h ([1]; liver, 0.4 mg/kg, liver, 30 min post-i.v. coinjection of 10 μCi with 0.4 mg/kg (R)-indole-2-carboxamide, 95% confidence intervals (Table 5), read-out: % DOSE/GRAM, Liver, coinjection) of 1.69 ± 0.39 %ID/g. It also gave a tissue uptake at 0.5 h ([1]; muscle, 0.4 mg/kg, muscle, 30 min post-i.v. coinjection of 10 μCi with 0.4 mg/kg (R)-indole-2-carboxamide, 95% confidence intervals (Table 5), read-out: % DOSE/GRAM, Muscle, coinjection) of 0.271 ± 0.04 %ID/g, a tissue uptake at 0.25 h ([1]; pancreas, 0.4 mg/kg, pancreas, 15 min, i.v. coinjection with 0.4 mg/kg (R)-indole-2-carboxamide, 95% confidence intervals (Table 3), read-out: % DOSE/GRAM in rat pancreas, coinjection) of 0.574 ± 0.065 %ID/g and a tissue uptake at 0.5 h ([1]; pancreas, 0.4 mg/kg, pancreas, 30 min, i.v. coinjection with 0.4 mg/kg (R)-indole-2-carboxamide, 95% confidence intervals (Table 3), read-out: % DOSE/GRAM in rat pancreas, coinjection) of 0.727 ± 0.18 %ID/g. The tissue uptake at 0.5 h ([1]; pancreas, 0.4 mg/kg, pancreas, 30 min post-i.v. coinjection of 10 μCi with 0.4 mg/kg (R)-indole-2-carboxamide, 95% confidence intervals (Table 5), read-out: % DOSE/GRAM, Pancreas, coinjection) was 0.9 ± 0.22 %ID/g, the tissue uptake at 1 h ([1]; pancreas, 0.4 mg/kg, pancreas, 60 min, i.v. coinjection with 0.4 mg/kg (R)-indole-2-carboxamide, 95% confidence intervals (Table 3), read-out: % DOSE/GRAM in rat pancreas, coinjection) was 0.472 ± 0.085 %ID/g and the “specific localization in the region of the pyloric sphincter” value (CCK-A receptors [2]) was “specific localization is obtained in the region of the pyloric sphincter”. For the same molecule, the “blockade of localization in the duodenum and colon” value (CCK-A receptors [2]; duodenum and colon) was “significant blockade of localization was not demonstrated”, the tissue uptake at 0.5 h ([3]; rat, blood, iv, 10 uCi, blood, 30 min post-i.v. injection of 10 μCi, 95% confidence intervals (Table 4), read-out: % DOSE/GRAM, Blood) was 0.307 ± 0.051 %ID/g and the tissue uptake at 0.5 h ([3]; rat, descending colon, iv, 10 uCi, descending colon, 30 min post-i.v. injection of 10 μCi, 95% confidence intervals (Table 4), read-out: % DOSE/GRAM, Descending Colon) was 0.418 ± 0.073 %ID/g. For the same molecule, the tissue uptake at 0.5 h ([3]; rat, liver, iv, 10 uCi, liver, 30 min post-i.v. injection of 10 μCi, 95% confidence intervals (Table 4), read-out: % DOSE/GRAM, Liver) was 1.96 ± 0.56 %ID/g, the tissue uptake at 0.5 h ([3]; rat, muscle, iv, 10 uCi, muscle, 30 min post-i.v. injection of 10 μCi, 95% confidence intervals (Table 4), read-out: % DOSE/GRAM, Muscle) was 0.319 ± 0.086 %ID/g and the tissue uptake at 0.25 h ([3]; rat, pancreas, iv, 10 uCi, pancreas, 15 min, i.v. injection, error range 95% confidence intervals (Table 2), read-out: % DOSE/GRAM in rat pancreas) was 2.07 ± 0.46 %ID/g. For the same molecule, the tissue uptake at 0.5 h ([3]; rat, pancreas, iv, 10 uCi, pancreas, 30 min, i.v. injection, error range 95% confidence intervals (Table 2), read-out: % DOSE/GRAM in rat pancreas) was 1.9 ± 0.71 %ID/g, the tissue uptake at 0.5 h ([3]; rat, pancreas, iv, 10 uCi, pancreas, 30 min post-i.v. injection of 10 μCi, 95% confidence intervals (Table 4), read-out: % DOSE/GRAM, Pancreas) was 2.54 ± 0.93 %ID/g and the tissue uptake at 1 h ([3]; rat, pancreas, iv, 10 uCi, pancreas, 60 min, i.v. injection, error range 95% confidence intervals (Table 2), read-out: % DOSE/GRAM in rat pancreas) was 1.14 ± 0.13 %ID/g. It also gave a tissue uptake at 0.5 h ([3]; rat, pyloric sphincter, iv, 10 uCi, P. Sphincter (pyloric), 30 min post-i.v. injection of 10 μCi, 95% confidence intervals (Table 4), read-out: % DOSE/GRAM, P. Sphincter) of 1.25 ± 0.33 %ID/g, a tissue uptake at 0.5 h ([3]; rat, sigmoidal colon, iv, 10 uCi, sigmoidal colon, 30 min post-i.v. injection of 10 μCi, 95% confidence intervals (Table 4), read-out: % DOSE/GRAM, Sigmoidal Colon) of 0.5 ± 0.13 %ID/g and a tissue uptake at 0.5 h ([3]; rat, transverse colon, iv, 10 uCi, transverse colon, 30 min post-i.v. injection of 10 μCi, 95% confidence intervals (Table 4), read-out: % DOSE/GRAM, Transverse Colon) of 0.5 ± 0.18 %ID/g. For the same molecule, the “ratio of activity in the pancreas to that in the blood and liver” value ([3]; rats) was “suggests sufficient localization to provide in vivo images of the pancreas”, the “localization in the pancreas (imaging and biopsied samples)” value (CCK-A receptors [4]) was “did localize in the pancreas by a receptor-mediated mechanism” and the “affinity for the CCK-A receptor relative to [^3 H](R)-N-(2,3 dihydro-1-methyl-2-oxo-5-phenyl-1H-1,4-benzodiazepin-3-yl)-1H-indole-2-carboxamide (fold lower)” value [5] was 3 -fold lower.
